# Experiments:
# tumor = assay: In vivo and ex vivo fluorescence imaging and immunohistochemistry with dextran-FITC; parameters: species or system mice; conditions: after TNF-α
# Text: The changes of mean ROI CEST contrast of tumor and kidney are plotted on the right. […] The dextran can be also imaged by its conjugated fluorescein (FITC).
# CT26 colon tumors = assay: In vivo CEST MRI of 150 kD dextran uptake before and after TNF-α; parameters: species or system mice; conditions: TNF-α 1 μg per mouse, one hour after 150 kD dextran
# Description: For dextran of 150 kD, a slightly different protocol was used (FIG. 3a). […] One hour later, TNF-α (1 μg per mouse) was injected. The CEST MRI was acquired using a series of z spectral imaging acquisition (from −3 ppm to +3 ppm, step=0.2 ppm). Each acquisition took ˜16 minutes. For all the studies, a fat-suppressed RARE sequence with a continuous wave pre-saturation pulse B1=1.8 μT and 3 seconds (TR/TE=5000/5 ms, RARE factor=10)^2 was used. Data were processed using custom-written MATLAB scripts. After correcting for B0 inhomogeneity using the WASSR method, the in vivo CEST contrast was quantified by averaging the MTRasym=(S^−Δω−S^+Δω)/S0 from 0.8 to 1.2 ppm.^2
substance,measurement,setting,value
TNF-α,dextran uptake in tumors by fluorescence imaging and immunohistochemistry,tumor,marked increased dextran uptake in tumors
same,effect of TNF-α on dextran accumulation in tumor and kidney,CT26 colon tumors,increased vascular permeability

# Source: US10613180B2, “Methods and systems of assessing tissue vascular permeability using non-labeled dextran” (priority 2014, dated 2020)
